Measured values published in PubChem BioAssay (NCI).
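Following 48 hours of exposure in 96-well plates, responses at five concentrations were used to interpolate endpoints linearly. Abbreviation: GI50, concentration required for 50% inhibition of growth. Definition used: TGI = concentration required for complete inhibition of growth.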

Columns and labels:
Assay in all cases: NCI tumour cell line growth inhibition, 48 h
K-562 leukemia = system: K-562 leukemia
PC-3 prostate = system: PC-3 prostate
HCT-15 colon = system: HCT-15 colon
MALME-3M melanoma = system: MALME-3M melanoma
HT29 colon = system: HT29 colon
NCI/ADR-RES ovarian = system: NCI/ADR-RES ovarian
HCT-116 colon = system: HCT-116 colon
M14 melanoma = system: M14 melanoma
SNB-19 CNS = system: SNB-19 CNS
OVCAR-8 ovarian = system: OVCAR-8 ovarian
U251 CNS = system: U251 CNS
SK-MEL-2 melanoma = system: SK-MEL-2 melanoma
HL-60(TB) leukemia = system: HL-60(TB) leukemia
ACHN renal = system: ACHN renal
EKVX NSCLC = system: EKVX NSCLC
SK-MEL-5 melanoma = system: SK-MEL-5 melanoma
A549 NSCLC = system: A549 NSCLC
MCF7 breast = system: MCF7 breast
OVCAR-3 ovarian = system: OVCAR-3 ovarian
DU-145 prostate = system: DU-145 prostate
A498 renal = system: A498 renal
SF-268 CNS = system: SF-268 CNS
SF-539 CNS = system: SF-539 CNS
OVCAR-4 ovarian = system: OVCAR-4 ovarian
IGROV1 ovarian = system: IGROV1 ovarian
SN12C renal = system: SN12C renal
OVCAR-5 ovarian = system: OVCAR-5 ovarian
COLO 205 colon = system: COLO 205 colon
TK-10 renal = system: TK-10 renal
UO-31 renal = system: UO-31 renal
SW-620 colon = system: SW-620 colon
RXF 393 renal = system: RXF 393 renal
UACC-62 melanoma = system: UACC-62 melanoma
SK-OV-3 ovarian = system: SK-OV-3 ovarian
LOX IMVI melanoma = system: LOX IMVI melanoma
NCI-H522 lung = system: NCI-H522 lung
MOLT-4 leukemia = system: MOLT-4 leukemia
HS 578T breast = system: HS 578T breast
UACC-257 melanoma = system: UACC-257 melanoma
SF-295 CNS = system: SF-295 CNS
SNB-75 CNS = system: SNB-75 CNS
NCI-H460 lung = system: NCI-H460 lung
SR leukemia = system: SR leukemia
CAKI-1 renal = system: CAKI-1 renal
BT-549 breast = system: BT-549 breast
T-47D breast = system: T-47D breast
MDA-MB-231 breast = system: MDA-MB-231 breast
HOP-92 NSCLC = system: HOP-92 NSCLC
NCI-H226 lung = system: NCI-H226 lung
HOP-62 NSCLC = system: HOP-62 NSCLC
NCI-H23 lung = system: NCI-H23 lung
HCC-2998 colon = system: HCC-2998 colon
RPMI-8226 leukemia = system: RPMI-8226 leukemia
KM12 colon = system: KM12 colon
SK-MEL-28 melanoma = system: SK-MEL-28 melanoma
786-0 renal = system: 786-0 renal
CCRF-CEM leukemia = system: CCRF-CEM leukemia
MDA-MB-435 = system: MDA-MB-435

SMILES: CS(=O)(=O)CCNCc1ccc(-c2ccc3ncnc(Nc4ccc(OCc5ccccc5)c(Cl)c4)c3c2)o1
- GI50 (K-562 leukemia): 5.45 µM
- TGI (K-562 leukemia): 14.4 µM
- GI50 (PC-3 prostate): 7.41 µM
- TGI (PC-3 prostate): 24.2 µM
- GI50 (HCT-15 colon): 3.55 µM
- TGI (HCT-15 colon): 10 µM
- GI50 (MALME-3M melanoma): 5.18 µM
- TGI (MALME-3M melanoma): 10.4 µM
- GI50 (HT29 colon): 3.53 µM
- TGI (HT29 colon): 7.98 µM
- GI50 (NCI/ADR-RES ovarian): 5.9 µM
- TGI (NCI/ADR-RES ovarian): > 25 µM
- GI50 (HCT-116 colon): 4.53 µM
- TGI (HCT-116 colon): 9.54 µM
- GI50 (M14 melanoma): 4.82 µM
- TGI (M14 melanoma): 10 µM
- GI50 (SNB-19 CNS): 10.4 µM
- TGI (SNB-19 CNS): > 25 µM
- GI50 (OVCAR-8 ovarian): 8.1 µM
- TGI (OVCAR-8 ovarian): > 25 µM
- GI50 (U251 CNS): 5.02 µM
- TGI (U251 CNS): > 15.8 µM
- GI50 (SK-MEL-2 melanoma): 4.62 µM
- TGI (SK-MEL-2 melanoma): 9.71 µM
- GI50 (HL-60(TB) leukemia): 5.2 µM
- TGI (HL-60(TB) leukemia): 11.8 µM
- GI50 (ACHN renal): 0.187 µM
- TGI (ACHN renal): > 25 µM
- GI50 (EKVX NSCLC): 0.132 µM
- TGI (EKVX NSCLC): > 18.7 µM
- GI50 (SK-MEL-5 melanoma): 2.98 µM
- TGI (SK-MEL-5 melanoma): 6.08 µM
- GI50 (A549 NSCLC): 7.18 µM
- TGI (A549 NSCLC): > 25 µM
- GI50 (MCF7 breast): 5.06 µM
- TGI (MCF7 breast): > 13.8 µM
- GI50 (OVCAR-3 ovarian): 6.54 µM
- TGI (OVCAR-3 ovarian): > 25 µM
- GI50 (DU-145 prostate): 7.91 µM
- TGI (DU-145 prostate): > 25 µM
- GI50 (A498 renal): 1.56 µM
- TGI (A498 renal): 9.33 µM
- GI50 (SF-268 CNS): 6.52 µM
- TGI (SF-268 CNS): > 25 µM
- GI50 (SF-539 CNS): 4.26 µM
- TGI (SF-539 CNS): 9.2 µM
- GI50 (OVCAR-4 ovarian): 9.59 µM
- TGI (OVCAR-4 ovarian): > 25 µM
- GI50 (IGROV1 ovarian): 2.8 µM
- TGI (IGROV1 ovarian): > 21.4 µM
- GI50 (SN12C renal): 11.9 µM
- TGI (SN12C renal): > 25 µM
- GI50 (OVCAR-5 ovarian): 3.61 µM
- TGI (OVCAR-5 ovarian): 18.8 µM
- GI50 (COLO 205 colon): 4.05 µM
- TGI (COLO 205 colon): 9.67 µM
- GI50 (TK-10 renal): 0.158 µM
- TGI (TK-10 renal): > 14.1 µM
- GI50 (UO-31 renal): 1.64 µM
- TGI (UO-31 renal): 7.38 µM
- GI50 (SW-620 colon): 4.49 µM
- TGI (SW-620 colon): 8.98 µM
- GI50 (RXF 393 renal): 1.61 µM
- TGI (RXF 393 renal): 6.33 µM
- GI50 (UACC-62 melanoma): 4.11 µM
- TGI (UACC-62 melanoma): 8.15 µM
- GI50 (SK-OV-3 ovarian): 0.0416 µM
- TGI (SK-OV-3 ovarian): > 8.58 µM
- GI50 (LOX IMVI melanoma): 4.11 µM
- TGI (LOX IMVI melanoma): 8.2 µM
- GI50 (NCI-H522 lung): 2.2 µM
- TGI (NCI-H522 lung): 6.79 µM
- GI50 (MOLT-4 leukemia): 6.05 µM
- TGI (MOLT-4 leukemia): > 25 µM
- GI50 (HS 578T breast): 3.55 µM
- TGI (HS 578T breast): 12.7 µM
- GI50 (UACC-257 melanoma): 3.92 µM
- TGI (UACC-257 melanoma): 7.74 µM
- GI50 (SF-295 CNS): 4.94 µM
- TGI (SF-295 CNS): 12.1 µM
- GI50 (SNB-75 CNS): 4.94 µM
- TGI (SNB-75 CNS): > 25 µM
- GI50 (NCI-H460 lung): 6.07 µM
- TGI (NCI-H460 lung): > 17.8 µM
- GI50 (SR leukemia): 6.91 µM
- TGI (SR leukemia): 23.9 µM
- GI50 (CAKI-1 renal): 0.41 µM
- TGI (CAKI-1 renal): > 21.8 µM
- GI50 (BT-549 breast): 6.9 µM
- TGI (BT-549 breast): > 25 µM
- GI50 (T-47D breast): 1.1 µM
- TGI (T-47D breast): 12.9 µM
- GI50 (MDA-MB-231 breast): 4.3 µM
- TGI (MDA-MB-231 breast): 9.31 µM
- GI50 (HOP-92 NSCLC): 3.06 µM
- TGI (HOP-92 NSCLC): 11.3 µM
- GI50 (NCI-H226 lung): 4.74 µM
- TGI (NCI-H226 lung): > 22.9 µM
- GI50 (HOP-62 NSCLC): 6.83 µM
- TGI (HOP-62 NSCLC): > 20.3 µM
- GI50 (NCI-H23 lung): 8.98 µM
- TGI (NCI-H23 lung): > 25 µM
- GI50 (HCC-2998 colon): 4.27 µM
- TGI (HCC-2998 colon): 8.37 µM
- GI50 (RPMI-8226 leukemia): 5.49 µM
- TGI (RPMI-8226 leukemia): 13.7 µM
- GI50 (KM12 colon): 6.41 µM
- TGI (KM12 colon): 17.8 µM
- GI50 (SK-MEL-28 melanoma): 3.85 µM
- TGI (SK-MEL-28 melanoma): 7.49 µM
- GI50 (786-0 renal): 4.06 µM
- TGI (786-0 renal): 8.58 µM
- GI50 (CCRF-CEM leukemia): 7.24 µM
- TGI (CCRF-CEM leukemia): > 21.5 µM
- GI50 (MDA-MB-435): 4.47 µM
- TGI (MDA-MB-435): 9.78 µM
